{
  "source": "patent US10508088B2",
  "about": "“Methods using HDAC11 inhibitors” (FORMA Therapeutics, Inc., priority 2016, dated 2019)",
  "data": [
    {"biological_target": "Full length human recombinant HDAC11 (Homo sapiens (Human), UniProt Q96DB2)", "sequence (Q96DB2 whole entry)": "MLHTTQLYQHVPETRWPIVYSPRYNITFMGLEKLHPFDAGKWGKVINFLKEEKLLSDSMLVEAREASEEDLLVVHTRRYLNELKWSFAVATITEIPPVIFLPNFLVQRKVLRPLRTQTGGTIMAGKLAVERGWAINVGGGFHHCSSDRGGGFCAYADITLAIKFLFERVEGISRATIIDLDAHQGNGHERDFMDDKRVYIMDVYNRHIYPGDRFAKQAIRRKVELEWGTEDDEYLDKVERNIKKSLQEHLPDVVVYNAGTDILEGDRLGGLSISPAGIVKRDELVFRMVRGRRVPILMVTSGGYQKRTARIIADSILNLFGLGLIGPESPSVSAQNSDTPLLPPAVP", "assay": "Enzymatic HDAC11 assay, electrophoretic mobility shift", "assay_type": "biochemical", "settings": "substrate FAM-RHKK(tri-fluor-Ac)-NH2, read-out: HDAC11 IC50 Range", "description": "The enzymatic HDAC11 assay was performed using electrophoretic mobility shift assay. Full length human recombinant HDAC11 protein was expressed in baculoviral system and purified by affinity chromatography. The enzymatic reactions were assembled in 384 well plates in a total volume of 25 μL in a reaction buffer composing: 100 mM HEPES, pH 7.5, 25 mM KCl, 0.1% bovine serum albumin, 0.01% Triton X-100, 1% DMSO (from compounds) 2 μM of the fluorescently labeled peptide substrate and enzyme. The enzyme was added at a final concentration of 10 nM. The peptide substrate FAM-RHKK(tri-fluor-Ac)-NH2 was used. The compounds were tested at 12 concentrations spaced by 3× dilution intervals. Negative control samples (0%-inhibition in the absence of inhibitor) and positive control samples (100%-inhibition) were assembled in replicates of four in each assay plate. The reactions were incubated at 25° C. and quenched by the addition of 45 μL of termination buffer (100 mM HEPES, pH 7.5, 0.01% Triton X-100, 0.05% SDS).\nThe terminated assay plates were analyzed on LabChip® 3000 microfluidic electrophoresis instrument (Perkin Elmer/Caliper Life Sciences). The fluorescence intensity of the electrophoretically separated de-acetylated product and substrate peptide was measured. Activity in each sample was determined as the product to sum ratio (PSR):P/(S+P), where P is the peak height of the product peptide and S is the peak height of the substrate peptide. Percent inhibition (Pinh) is determined using the following equation: Pinh=(PSR0%−PSRinh)/(PSR0%−PSR100%)*100,\nwhere PSRinh is the product sum ratio in the presence of inhibitor, PSR0% is the average product sum ration in the absence of inhibitor and PSR100% is the average product sum ratio in 100%-inhibition control samples. The IC50 values of inhibitors were determined by fitting the percent inhibition curves with 4 parameter dose-response model using XLfit 4 software.", "units": {"IC50": "µM"}, "values": [
      {"smiles": "O=C(NO)c1cccc2c1CC1(CCN(c3ccccc3C(F)(F)F)C1=O)C2", "note": "(stereo not shown) [II-13, N-hydroxy-2′-oxo-1′-(2-(trifluoromethyl)phenyl)-1,3-dihydrospiro[indene-2,3′-pyrrolidine]-4-carboxamide]", "IC50": "> 1"},
      {"smiles": "O=C(NO)c1cccc2c1CC1(CCN(Cc3cccc(OC(F)(F)F)c3)C1=O)C2", "note": "(stereo not shown) [II-42, N-hydroxy-2′-oxo-1′-(3-(trifluoromethoxy)benzyl)-1,3-dihydrospiro[indene-2,3′-pyrrolidine]-4-carboxamide]", "IC50": "< 0.5"},
      {"smiles": "O=C(NO)c1cccc2c1CC1(CCN(Cc3ccccc3-c3ccccc3)C1=O)C2", "note": "(stereo not shown) [II-37, 1′-([1,1′-biphenyl]-2-ylmethyl)-N-hydroxy-2′-oxo-1,3-dihydrospiro[indene-2,3′-pyrrolidine]-4-carboxamide]", "IC50": "< 0.5"},
      {"smiles": "CC1(C(=O)N2CCC3(CCc4cccc(C(=O)NO)c4O3)CC2)CCOCC1", "note": "[II-77, N-hydroxy-1′-(4-methyltetrahydro-2H-pyran-4-carbonyl)spiro[chromane-2,4′-piperidine]-8-carboxamide]", "IC50": "> 1"},
      {"smiles": "O=C(NO)c1cccc2c1OC1(CC2)CCN(C(=O)C2(c3cccc(C(F)(F)F)c3)CC2)CC1", "note": "[II-78, N-hydroxy-1′-(1-(3-(trifluoromethyl)phenyl)cyclopropane-1-carbonyl)spiro[chromane-2,4′-piperidine]-8-carboxamide]", "IC50": "< 0.5"},
      {"smiles": "O=C(NO)c1cccc2c1CC1(CCN(Cc3ccccc3)CC1)C2O", "note": "(stereo not shown) [II-66, 1′-benzyl-N,1-dihydroxy-1,3-dihydrospiro[indene-2,4′-piperidine]-4-carboxamide]", "IC50": "> 1"},
      {"smiles": "O=C(NO)c1cccc2c1CC1(CCN(Cc3ccc(F)cc3)C1=O)C2", "note": "(stereo not shown) [II-7, 1′-(4-fluorobenzyl)-N-hydroxy-2′-oxo-1,3-dihydrospiro[indene-2,3′-pyrrolidine]-4-carboxamide]", "IC50": "0.5 to 1"},
      {"smiles": "O=C(NO)c1cccc2c1CCC1(CCN(Cc3ccc(C(F)(F)F)c(F)c3)C1=O)C2", "note": "(stereo not shown) [II-86, 1′-(3-fluoro-4-(trifluoromethyl)benzyl)-N-hydroxy-2′-oxo-3,4-dihydro-1H-spiro[naphthalene-2,3′-pyrrolidine]-5-carboxamide]", "IC50": "< 0.5"},
      {"smiles": "O=C(NO)c1cccc2c1CC1(CCN(Cc3c(Cl)cccc3Cl)C1=O)C2", "note": "(stereo not shown) [II-21, 1′-(2,6-dichlorobenzyl)-N-hydroxy-2′-oxo-1,3-dihydrospiro[indene-2,3′-pyrrolidine]-4-carboxamide]", "IC50": "0.5 to 1"},
      {"smiles": "O=C(NO)c1cccc2c1CC1(CCN(Cc3ccc(OC(F)(F)F)cc3)C1=O)C2", "note": "(stereo not shown) [II-27, N-hydroxy-2′-oxo-1′-(4-(trifluoromethoxy)benzyl)-1,3-dihydrospiro[indene-2,3′-pyrrolidine]-4-carboxamide]", "IC50": "< 0.5"},
      {"smiles": "O=C(NO)c1cccc2c1CC1(CCN(Cc3ccc(Cl)cc3)C1=O)C2", "note": "(stereo not shown) [II-1, 1′-(4-chlorobenzyl)-N-hydroxy-2′-oxo-1,3-dihydrospiro[indene-2,3′-pyrrolidine]-4-carboxamide]", "IC50": "< 0.5"},
      {"smiles": "O=C(NO)c1cccc2c1CC1(CCN(Cc3cccc(C(F)(F)F)c3)C1=O)C2", "note": "(stereo not shown) [II-31, N-hydroxy-2′-oxo-1′-(3-(trifluoromethyl)benzyl)-1,3-dihydrospiro[indene-2,3′-pyrrolidine]-4-carboxamide]", "IC50": "< 0.5"},
      {"smiles": "O=C(NO)c1cccc2c1CC1(CCN(Cc3cccc(Cl)c3)C1=O)C2", "note": "(stereo not shown) [II-30, 1′-(3-chlorobenzyl)-N-hydroxy-2′-oxo-1,3-dihydrospiro[indene-2,3′-pyrrolidine]-4-carboxamide]", "IC50": "< 0.5"},
      {"smiles": "O=C(NO)c1cccc2c1CC1(CCN(Cc3ccc(Cl)c(Cl)c3)C1=O)C2", "note": "(stereo not shown) [II-38, 1′-(3,4-dichlorobenzyl)-N-hydroxy-2′-oxo-1,3-dihydrospiro[indene-2,3′-pyrrolidine]-4-carboxamide]", "IC50": "< 0.5"},
      {"smiles": "O=C(NO)c1cccc2c1CC1(CCN(c3ccc(C(F)(F)F)cc3)C1=O)C2", "note": "(stereo not shown) [II-11, N-hydroxy-2′-oxo-1′-(4-(trifluoromethyl)phenyl)-1,3-dihydrospiro[indene-2,3′-pyrrolidine]-4-carboxamide]", "IC50": "> 1"},
      {"smiles": "O=C(NO)c1cccc2c1CC1(CCN(CC3CCC3)C1=O)C2", "note": "(stereo not shown) [II-10, 1′-(cyclobutylmethyl)-N-hydroxy-2′-oxo-1,3-dihydrospiro[indene-2,3′-pyrrolidine]-4-carboxamide]", "IC50": "> 1"},
      {"smiles": "O=C(NO)c1cccc2c1C[C@@]1(CCN(Cc3ccc(Cl)c(C(F)(F)F)c3)C1=O)C2", "note": "[II-3, (R)-1′-(4-chloro-3-(trifluoromethyl)benzyl)-N-hydroxy-2′-oxo-1,3-dihydrospiro[indene-2,3′-pyrrolidine]-4-carboxamide]", "IC50": "< 0.5"},
      {"smiles": "O=C(NO)c1cccc2c1OC1(CC2)CCN(c2ccc(C(F)(F)F)cn2)CC1", "note": "[II-82, N-hydroxy-1′-(5-(trifluoromethyl)pyridin-2-yl)spiro[chromane-2,4′-piperidine]-8-carboxamide]", "IC50": "> 1"},
      {"smiles": "O=C(NO)c1cccc2c1CC1(CCN(Cc3ccccc3OC(F)(F)F)C1=O)C2", "note": "(stereo not shown) [II-32, N-hydroxy-2′-oxo-1′-(2-(trifluoromethoxy)benzyl)-1,3-dihydrospiro[indene-2,3′-pyrrolidine]-4-carboxamide]", "IC50": "0.5 to 1"},
      {"smiles": "O=C(NO)c1cccc2c1CC1(CCN(C(=O)c3ccc(C(F)(F)F)cc3)C1)C2", "note": "(stereo not shown) [II-58, N-hydroxy-1′-(4-(trifluoromethyl)benzoyl)-1,3-dihydrospiro[indene-2,3′-pyrrolidine]-4-carboxamide]", "IC50": "> 1"},
      {"smiles": "CC(=O)N1CCC2(CC1)Cc1cccc(C(=O)NO)c1C2", "note": "[II-60, 1′-acetyl-N-hydroxy-1,3-dihydrospiro[indene-2,4′-piperidine]-4-carboxamide]", "IC50": "> 1"},
      {"smiles": "COc1cccc(CN2CCC3(Cc4cccc(C(=O)NO)c4C3)C2=O)c1", "note": "(stereo not shown) [II-20, N-hydroxy-1′-(3-methoxybenzyl)-2′-oxo-1,3-dihydrospiro[indene-2,3′-pyrrolidine]-4-carboxamide]", "IC50": "> 1"},
      {"smiles": "O=C(NO)c1cccc2c1CC1(CCN(c3cccc(C(F)(F)F)c3)C1=O)C2", "note": "(stereo not shown) [II-12, N-hydroxy-2′-oxo-1′-(3-(trifluoromethyl)phenyl)-1,3-dihydrospiro[indene-2,3′-pyrrolidine]-4-carboxamide]", "IC50": "0.5 to 1"},
      {"smiles": "O=C(NO)c1cccc2c1CC1(CCN(Cc3ccc(C(F)(F)F)c(F)c3)C1=O)C2", "note": "(stereo not shown) [II-5, 1′-(3-fluoro-4-(trifluoromethyl)benzyl)-N-hydroxy-2′-oxo-1,3-dihydrospiro[indene-2,3′-pyrrolidine]-4-carboxamide]", "IC50": "< 0.5"},
      {"smiles": "CC(=O)N1CCC2(Cc3cccc(C(=O)NO)c3C2)C1", "note": "(stereo not shown) [II-59, 1′-acetyl-N-hydroxy-1,3-dihydrospiro[indene-2,3′-pyrrolidine]-4-carboxamide]", "IC50": "> 1"},
      {"smiles": "O=C(NO)c1cccc2c1CC1(CCN(C3CC3)CC1)C2", "note": "[II-63, 1′-cyclopropyl-N-hydroxy-1,3-dihydrospiro[indene-2,4′-piperidine]-4-carboxamide]", "IC50": "> 1"},
      {"smiles": "O=C(NO)c1cccc2c1CCC1(CCN(Cc3ccc(Cl)cc3)C1=O)C2", "note": "(stereo not shown) [II-87, 1′-(4-chlorobenzyl)-N-hydroxy-2′-oxo-3,4-dihydro-1H-spiro[naphthalene-2,3′-pyrrolidine]-5-carboxamide]", "IC50": "> 1"},
      {"smiles": "O=C(NO)c1cccc2c1CC1(CCN(Cc3cccc(C(F)(F)F)c3F)C1=O)C2", "note": "(stereo not shown) [II-43, 1′-(2-fluoro-3-(trifluoromethyl)benzyl)-N-hydroxy-2′-oxo-1,3-dihydrospiro[indene-2,3′-pyrrolidine]-4-carboxamide]", "IC50": "< 0.5"},
      {"smiles": "O=C(NO)c1cccc2c1CC1(CC2)CCN(Cc2ccc(Cl)c(C(F)(F)F)c2)C1=O", "note": "(stereo not shown) [II-67, 1′-(4-chloro-3-(trifluoromethyl)benzyl)-N-hydroxy-2′-oxo-3,4-dihydro-1H-spiro[naphthalene-2,3′-pyrrolidine]-8-carboxamide]", "IC50": "< 0.5"},
      {"smiles": "O=C(NO)c1cccc2c1CC1(CCN(CCN3CCOCC3)C1=O)C2", "note": "(stereo not shown) [II-52, N-hydroxy-1′-(2-morpholinoethyl)-2′-oxo-1,3-dihydrospiro[indene-2,3′-pyrrolidine]-4-carboxamide]", "IC50": "> 1"},
      {"smiles": "O=C(NO)c1cccc2c1CC1(CCN(Cc3noc(C4CCOCC4)n3)C1=O)C2", "note": "(stereo not shown) [II-49, N-hydroxy-2′-oxo-1′-((5-(tetrahydro-2H-pyran-4-yl)-1,2,4-oxadiazol-3-yl)methyl)-1,3-dihydrospiro[indene-2,3′-pyrrolidine]-4-carboxamide]", "IC50": "> 1"},
      {"smiles": "O=C(NO)c1cccc2c1CC1(CC2)CCN(c2ccc(C(F)(F)F)cc2)C1=O", "note": "(stereo not shown) [II-71, N-hydroxy-2′-oxo-1′-(4-(trifluoromethyl)phenyl)-3,4-dihydro-1H-spiro[naphthalene-2,3′-pyrrolidine]-8-carboxamide]", "IC50": "0.5 to 1"},
      {"smiles": "COc1ccc(CN2CCC3(Cc4cccc(C(=O)NO)c4C3)C2=O)cc1", "note": "(stereo not shown) [II-19, N-hydroxy-1′-(4-methoxybenzyl)-2′-oxo-1,3-dihydrospiro[indene-2,3′-pyrrolidine]-4-carboxamide]", "IC50": "> 1"},
      {"smiles": "O=C(NO)c1cccc2c1CCC1(CCN(c3ccc(F)cc3)CC1)O2", "note": "[II-93, 1′-(4-fluorophenyl)-N-hydroxyspiro[chromane-2,4′-piperidine]-5-carboxamide]", "IC50": "> 1"}
    ]}
  ]
}
